# Measured values reported in US11992473B2, “Compositions and methods for diagnosis and treatment of conditions related to the quality of aging and longevity” (Epitracker, Inc., priority 2018, dated 2024).
# Legend:
# Format in all cases: cell-based, human
# [1] = tested on: Peripheral blood mononuclear cells, B cells; test: BioMAP Diversity PLUS BT system (T cell dependent B cell activation); details: for interleukin 17A (IL-17A): human cell system mimicking asthma, autoimmunity and allergies (FIG. 5)
# Procedure: (§1) This study examined activities of small molecules discovered in dolphin serum that had protective profiles against diseases of aging which can impact quality of life and longevity. These molecules were tested across 12 human primary cell-based systems as part of DiscoverX's BioMAP Diversity Plus program. These systems are designed to model complex human tissue and disease biology of the vasculature, skin, lung, and inflammatory tissues. Quantitative measurements of biomarker activities across this broad panel, along with comparative analysis of biological activities of known bioactive agents were used to predict and compare the efficacy and function of the four compounds. Compounds were tested at four concentrations (740 nm and 2.2, 6.7 and 20 μM).
# (§2) BioMAP panels consist of human primary cell-based systems designed to model different aspects of the human body in an in vitro format. The 12 systems in the Diversity PLUS panel allow test agent characterization in an unbiased way across a broad set of systems modeling various human disease states. BioMAP systems are constructed with one or more primary cell types from healthy human donors, with stimuli (such as cytokines or growth factors) added to capture relevant signaling networks that naturally occur in human tissue or pathological conditions. Vascular biology is modeled in both a Th1 (3C system) and a Th2 (4H system) inflammatory environment, as well as in a Th1 inflammatory state specific to arterial smooth muscle cells (CASM3C system). Additional systems recapitulate aspects of the systemic immune response including monocyte-driven Th1 inflammation (LPS system) or T cell stimulation (SAg system), chronic Th1 inflammation driven by macrophage activation (lMphg system) and the T cell-dependent activation of B cells that occurs in germinal centers (BT system). The BE3C system (Th1) and the BF4T system (Th2) represent airway inflammation of the lung, while the MyoF system models myofibroblast-lung tissue remodeling. Lastly, skin biology is addressed in the KF3CT system modeling Th1 cutaneous inflammation and the HDF3CGF system modeling wound healing.
# (§3) Each test agent generates a signature BioMAP profile that is created from the changes in protein biomarker readouts within individual system environments. Biomarker readouts (7-17 per system) are selected for therapeutic and biological relevance, are predictive for disease outcomes or specific drug effects and are validated using agents with known mechanism of action (MoA). Each readout is measured quantitatively by immune-based methods that detect protein (e.g., ELISA) or functional assays that measure proliferation and viability. BioMAP readouts are diverse and include cell surface receptors, cytokines, chemokines, matrix molecules and enzymes.
# (§4) The Diversity PLUS panel allows test agent characterization in an unbiased way across a broad set of systems modeling various human disease states. These systems are designed to model complex human tissue and disease biology of the vasculature, skin, lung, and inflammatory tissues.
# (§5) BioMAP systems are constructed with one or more primary cell types from healthy human donors, with stimuli (such as cytokines or growth factors) added to capture relevant signaling networks that naturally occur in human tissue or pathological conditions. Vascular biology is modeled in both a Th1 (3C system) and a Th2 (4H system) inflammatory environment, as well as in a Th1 inflammatory state specific to arterial smooth muscle cells (CASM3C system). Additional systems recapitulate aspects of the systemic immune response including monocyte-driven Th1 inflammation (LPS system) or T cell stimulation (SAg system), chronic Th1 inflammation driven by macrophage activation (lMphg system) and the T cell-dependent activation of B cells that occurs in germinal centers (BT system).
# [2] = tested on: Venular endothelial cells, peripheral blood mononuclear cells; test: BioMAP Diversity PLUS SAg system (T cell stimulation, Th1 type chronic inflammation); details: for Significant log10 reduction compared to nontreated controls: Monocyte chemoattractant protein 1 (MCP-1) / Significant log10 reduction compared to nontreated controls: CD40: SAg system; for T cell proliferation: concentrations ranging from 740 nm to 6.7 μM (FIG. 2)
# Procedure: as §1, §2
# as §3, with “enzymes. In total, the Diversity PLUS panel contains 148 biomarker readouts that capture biological changes that occur within the physiological context of the particular BioMAP system. Specific BioMAP activities have been correlated to in vivo biology, and multiparameter BioMAP profiles have been used to distinguish compounds based on MoA and target selectivity across diverse physiological systems.” for “enzymes.”
# (§6) The Diversity PLUS panel allows test agent characterization in an unbiased way across a broad set of systems modeling various human disease states. These systems are designed to model complex human tissue and disease biology of the vasculature, skin, lung, and inflammatory tissues. Quantitative measurements of 148 biomarker activities across this broad panel, along with comparative analysis of biological activities from known bioactive agents, were used to predict and compare the efficacy and function of each selected compound at four concentrations (740 nm and 2.2, 6.7 and 20 μM). […]
# Dermal fibroblasts = test: BioMAP Diversity PLUS HDF3CGF system (wound healing and matrix/tissue remodeling)
# Procedure: as §1, §2, §3, §4, §5
# [3] = tested on: Venular endothelial cells, peripheral blood mononuclear cells; test: BioMAP Diversity PLUS LPS system (Th1 type chronic inflammation, monocyte activation); details: for secretion of prostaglandin E2 (PGE2): human cell system mimicking T-cell and monocyte driven chronic inflammation and cardiovascular diseases (FIG. 4)
# Procedure: as §1, §2, §3, §4, §5
# [4] = tested on: Macrophages, venular endothelial cells; test: BioMAP Diversity PLUS lMphg system (Th1 type chronic inflammation, macrophage activation); details: /Mphg system; 20.0 μM
# Procedure: as §1, §2
# as §3, with “enzymes. In total, the Diversity PLUS panel contains 148 biomarker readouts that capture biological changes that occur within the physiological context of the particular BioMAP system. Specific BioMAP activities have been correlated to in vivo biology, and multiparameter BioMAP profiles have been used to distinguish compounds based on MoA and target selectivity across diverse physiological systems.” for “enzymes.”
# as §6
# [5] = tested on: Bronchial epithelial cells; test: BioMAP Diversity PLUS BE3C system (Th1 type lung inflammation)
# Procedure: as §1, §2
# as §3, with “enzymes. In total, the Diversity PLUS panel contains 148 biomarker readouts that capture biological changes that occur within the physiological context of the particular BioMAP system. Specific BioMAP activities have been correlated to in vivo biology, and multiparameter BioMAP profiles have been used to distinguish compounds based on MoA and target selectivity across diverse physiological systems.” for “enzymes.”
# as §6
# [6] = human cell system mimicking T-cell driven chronic inflammation and autoimmune diseases
structure (smiles),measurement,setting,value
"CCCCCCCCCCCCCCC(=O)O [Pentadecanoate (C15:0), pentadecanoate]",Significant log10 reduction compared to nontreated controls: Secreted interleukin 17A (IL-17A),"[1]; BT system, 2.2 μM",−0.25 log10
same,Significant log10 reduction compared to nontreated controls: Secreted interleukin 17F (IL-17F),"[1]; BT system, 2.2 μM",−0.16 log10
same,Significant log10 reduction compared to nontreated controls: Secreted immunoglobulin G (IgG),"[1]; BT system, 6.7 μM",−0.17 log10
same,Significant log10 reduction compared to nontreated controls: Secreted immunoglobulin G (IgG),"[1]; BT system, 20.0 μM",−0.55 log10
same,Significant log10 reduction compared to nontreated controls: Secreted interleukin 6 (IL-6),"[1]; BT system, 20.0 μM",−0.29 log10
same,Significant log10 reduction compared to nontreated controls: Secreted interleukin 17A (IL-17A),"[1]; BT system, 20.0 μM",−0.29 log10
same,Significant log10 reduction compared to nontreated controls: Secreted interleukin 17F (IL-17F),"[1]; BT system, 20.0 μM",−0.18 log10
same,Significant log10 reduction compared to nontreated controls: Monocyte chemoattractant protein 1 (MCP-1),[2]; 6.7 μM,−0.18 log10
same,Significant log10 reduction compared to nontreated controls: Monocyte chemoattractant protein 1 (MCP-1),[2]; 20.0 μM,−0.15 log10
same,Significant log10 reduction compared to nontreated controls: 72-hour fibroblast proliferation,"Dermal fibroblasts; HDF3CGF system, 6.7 μM",−0.67 log10
same,Significant log10 reduction compared to nontreated controls: Collagen I,"Dermal fibroblasts; HDF3CGF system, 6.7 μM",−0.07 log10
same,Significant log10 reduction compared to nontreated controls: Plasminogen activation inhibitor 1 (PAI-1),"Dermal fibroblasts; HDF3CGF system, 6.7 μM",−0.08 log10
same,Significant log10 reduction compared to nontreated controls: 72-hour fibroblast proliferation,"Dermal fibroblasts; HDF3CGF system, 20.0 μM",−1.1 log10
same,Significant log10 reduction compared to nontreated controls: Collagen I,"Dermal fibroblasts; HDF3CGF system, 20.0 μM",−0.13 log10
same,Significant log10 reduction compared to nontreated controls: Collagen III,"Dermal fibroblasts; HDF3CGF system, 20.0 μM",−0.13 log10
same,Significant log10 reduction compared to nontreated controls: Interferon gamma-induced protein 10 (IP-10)/CXCL10,"Dermal fibroblasts; HDF3CGF system, 20.0 μM",−0.14 log10
same,Significant log10 reduction compared to nontreated controls: Interferon-inducible T cell alpha chemoattractant (I-TAC)/CXCL11,"Dermal fibroblasts; HDF3CGF system, 20.0 μM",−0.17 log10
same,Significant log10 reduction compared to nontreated controls: Monokine induced by gamma interferon (MIG)/CXCL9,"Dermal fibroblasts; HDF3CGF system, 20.0 μM",−0.10 log10
same,Significant log10 reduction compared to nontreated controls: Plasminogen activation inhibitor 1 (PAI-1),"Dermal fibroblasts; HDF3CGF system, 20.0 μM",−0.13 log10
same,Significant log10 reduction compared to nontreated controls: Vascular cell adhesion molecule 1 (VCAM-1),"Dermal fibroblasts; HDF3CGF system, 20.0 μM",−0.28 log10
CCCCCCC=CCCCCCCCCC(=O)O [Compound 10-heptadecanoate],Significant log10 reduction compared to nontreated controls: Secreted interleukin 2 (IL-2),"[1]; BT system, 6.7 μM",−0.11 log10
O=C(O)[C@@H]1C[C@@H](O)CN1 (relative stereo) [Trans-4-hydroxyproline],interleukin 17A (IL-17A),[1],lowered
same,T cell proliferation,[2]; [6],decreased
same,decorin,"Dermal fibroblasts; human cell system mimicking wound healing, remodeling, fibrosis and chronic inflammation (FIG. 7)",inhibitory activity
"C=CCCCCCCCCC(=O)O [10-undecanoate (C11:1n1), 10-undecanoate]",Significant log10 reduction compared to nontreated controls: Secreted prostaglandin E2 (PGE2),"[3]; LPS system, 0.7 μM",−0.11 log10
same,Significant log10 reduction compared to nontreated controls: Secreted prostaglandin E2 (PGE2),"[3]; LPS system, 2.2 μM",−0.08 log10
same,Significant log10 reduction compared to nontreated controls: Secreted prostaglandin E2 (PGE2),"[3]; LPS system, 6.7 μM",−0.20 log10
same,Significant log10 reduction compared to nontreated controls: CD40,"[3]; LPS system, 20.0 μM",−0.11 log10
same,secretion of prostaglandin E2 (PGE2),[3],lowered
same,Significant log10 reduction compared to nontreated controls: Secreted interleukin 17A (IL-17A),"[1]; BT system, 2.2 μM",−0.25 log10
same,Significant log10 reduction compared to nontreated controls: Secreted interleukin 17A (IL-17A),"[1]; BT system, 20.0 μM",−0.20 log10
same,Significant log10 reduction compared to nontreated controls: Secreted tumor necrosis factor alpha (TNFα),"[1]; BT system, 20.0 μM",−0.12 log10
same,interleukin 17A (IL-17A),[1],lowered
same,Significant log10 reduction compared to nontreated controls: CD40,[2]; 0.7 μM,−0.07 log10
same,Significant log10 reduction compared to nontreated controls: CD40,[2]; 2.2 μM,−0.14 log10
same,Significant log10 reduction compared to nontreated controls: CD40,[2]; 6.7 μM,−0.09 log10
same,CD40,"[2]; human cell system mimicking T-cell driven chronic inflammation and autoimmune diseases, 740 nm, 2.2 μM, and 6.7 μM (FIG. 3)",lowered
same,T cell proliferation,[2]; [6],decreased
same,Significant log10 reduction compared to nontreated controls: Macrophage colony-stimulating factor (M-CSF),"Dermal fibroblasts; HDF3CGF system, 0.7 μM",−0.11 log10
same,Significant log10 reduction compared to nontreated controls: Macrophage colony-stimulating factor (M-CSF),"Dermal fibroblasts; HDF3CGF system, 2.2 μM",−0.07 log10
same,Significant log10 reduction compared to nontreated controls: Secreted interleukin 10 (IL-10),[4],−0.21 log10
same,Significant log10 reduction compared to nontreated controls: Tissue plasminogen activator (tPA),[5]; 2.2 μM,−0.08 log10
same,Significant log10 reduction compared to nontreated controls: Tissue plasminogen activator (tPA),[5]; 6.7 μM,−0.11 log10
same,Significant log10 reduction compared to nontreated controls: Tissue plasminogen activator (tPA),[5]; 20.0 μM,−0.12 log10
NC(=O)NCCCC[C@H](N)C(=O)O [Homocitrulline],secretion of prostaglandin E2 (PGE2),[3],lowered
same,T cell proliferation,[2]; [6],decreased
same,interleukin 8 (IL-8),"Dermal fibroblasts; human cell system mimicking wound healing, remodeling, fibrosis and chronic inflammation (FIG. 8)",inhibitory activity
